Assays:
[1] = biological target: Tyrosine-protein kinase Srms (Homo sapiens) (UniProt Q9H3Y6); conditions: Compound concentration 1000.0 nM
[2] = biological target: cAMP-dependent protein kinase catalytic subunit PRKX (Homo sapiens) (UniProt P51817); conditions: Compound concentration 1000.0 nM
[3] = biological target: Tyrosine-protein kinase JAK2 (Homo sapiens) (UniProt O60674); conditions: Compound concentration 1000.0 nM
[4] = biological target: cGMP-dependent protein kinase 2 (Homo sapiens) (UniProt Q13237); conditions: Compound concentration 1000.0 nM
[5] = system: Phosphatidylinositol 4,5-bisphosphate 3-kinase catalytic subunit alpha isoform (Homo sapiens), P42336 [H1047Y]; conditions: Compound concentration 1000.0 nM
[6] = biological target: Receptor tyrosine-protein kinase erbB-2 (Homo sapiens) (UniProt P04626); conditions: Compound concentration 1000.0 nM
[7] = biological target: Phosphorylase b kinase gamma catalytic chain, skeletal muscle/heart isoform (Homo sapiens) (UniProt Q16816); conditions: Compound concentration 1000.0 nM
[8] = biological target: Serine/threonine-protein kinase N2 (Homo sapiens) (UniProt Q16513); conditions: Compound concentration 1000.0 nM
[9] = biological target: Serine/threonine-protein kinase DCLK3 (Homo sapiens) (UniProt Q9C098); conditions: Compound concentration 1000.0 nM
[10] = system: Receptor-type tyrosine-protein kinase FLT3 (Homo sapiens), P36888 [D835H]; conditions: Compound concentration 1000.0 nM
[11] = biological target: Ephrin type-B receptor 3 (Homo sapiens) (UniProt P54753); conditions: Compound concentration 1000.0 nM
[12] = biological target: Interferon-induced, double-stranded RNA-activated protein kinase (Homo sapiens) (UniProt P19525); conditions: Compound concentration 1000.0 nM
[13] = biological target: Tyrosine-protein kinase Fgr (Homo sapiens) (UniProt P09769); conditions: Compound concentration 1000.0 nM
[14] = biological target: Atypical kinase COQ8B, mitochondrial (Homo sapiens) (UniProt Q96D53); conditions: Compound concentration 1000.0 nM
[15] = biological target: Uncharacterized serine/threonine-protein kinase SBK3 (Homo sapiens) (UniProt P0C264); conditions: Compound concentration 1000.0 nM
[16] = biological target: Ribosomal protein S6 kinase alpha-1 (Homo sapiens) (UniProt Q15418); conditions: Compound concentration 1000.0 nM
[17] = biological target: Histamine H1 receptor (Homo sapiens) (UniProt P35367); experiment: H1 (h) CEREP ligand profiling; conditions: filed as antagonist, Compound concentration 10.0 uM
[18] = biological target: Misshapen-like kinase 1 (Homo sapiens) (UniProt Q8N4C8); conditions: Compound concentration 1000.0 nM
[19] = biological target: Dual specificity mitogen-activated protein kinase kinase 3 (Homo sapiens) (UniProt P46734); conditions: Compound concentration 1000.0 nM
[20] = biological target: Transient receptor potential cation channel subfamily M member 6 (Homo sapiens) (UniProt Q9BX84); conditions: Compound concentration 1000.0 nM
[21] = biological target: Receptor-type tyrosine-protein kinase FLT3 (Homo sapiens) (UniProt P36888); conditions: Compound concentration 1000.0 nM
[22] = biological target: Histamine H2 receptor (Homo sapiens) (UniProt P25021); experiment: H2 (h) CEREP ligand profiling; conditions: filed as antagonist, Compound concentration 10.0 uM
[23] = biological target: SRSF protein kinase 1 (Homo sapiens) (UniProt Q96SB4); conditions: Compound concentration 1000.0 nM
[24] = biological target: Receptor tyrosine-protein kinase erbB-3 (Homo sapiens) (UniProt P21860); conditions: Compound concentration 1000.0 nM
[25] = biological target: Cyclin-dependent kinase 13 (Homo sapiens) (UniProt Q14004); conditions: Compound concentration 1000.0 nM
[26] = system: Receptor-type tyrosine-protein kinase FLT3 (Homo sapiens), P36888 [UNDEFINED MUTATION]; conditions: Compound concentration 1000.0 nM
[27] = biological target: Death-associated protein kinase 3 (Homo sapiens) (UniProt O43293); conditions: Compound concentration 1000.0 nM
[28] = biological target: P2X receptor (Rattus norvegicus) (UniProt P51579+P49653+P51578+Q64663+P47824+P51577+P49654); experiment: P2X CEREP ligand profiling; assay type: protein assay; conditions: filed as agonist; Compound concentration 10.0 uM
[29] = biological target: Cyclin-dependent kinase-like 5 (Homo sapiens) (UniProt O76039); conditions: Compound concentration 1000.0 nM
[30] = biological target: Serine/threonine-protein kinase Nek11 (Homo sapiens) (UniProt Q8NG66); conditions: Compound concentration 1000.0 nM
[31] = biological target: Tyrosine-protein kinase BTK (Homo sapiens) (UniProt Q06187); conditions: Compound concentration 1000.0 nM
[32] = biological target: Serine/threonine-protein kinase SIK1 (Homo sapiens) (UniProt P57059); conditions: Compound concentration 1000.0 nM
[33] = biological target: Ribosomal protein S6 kinase alpha-1 (Homo sapiens) (UniProt Q15418); conditions: Compound concentration 1000.0 nM; remark: listed apart in the source
[34] = biological target: Serine/threonine-protein kinase MRCK alpha (Homo sapiens) (UniProt Q5VT25); conditions: Compound concentration 1000.0 nM
[35] = biological target: T1, Muscarinic acetylcholine receptor M4 (Homo sapiens) (UniProt P08173); experiment: M4 (h) CEREP ligand profiling; conditions: filed as antagonist, Compound concentration 10.0 uM
T1 sequence (whole entry): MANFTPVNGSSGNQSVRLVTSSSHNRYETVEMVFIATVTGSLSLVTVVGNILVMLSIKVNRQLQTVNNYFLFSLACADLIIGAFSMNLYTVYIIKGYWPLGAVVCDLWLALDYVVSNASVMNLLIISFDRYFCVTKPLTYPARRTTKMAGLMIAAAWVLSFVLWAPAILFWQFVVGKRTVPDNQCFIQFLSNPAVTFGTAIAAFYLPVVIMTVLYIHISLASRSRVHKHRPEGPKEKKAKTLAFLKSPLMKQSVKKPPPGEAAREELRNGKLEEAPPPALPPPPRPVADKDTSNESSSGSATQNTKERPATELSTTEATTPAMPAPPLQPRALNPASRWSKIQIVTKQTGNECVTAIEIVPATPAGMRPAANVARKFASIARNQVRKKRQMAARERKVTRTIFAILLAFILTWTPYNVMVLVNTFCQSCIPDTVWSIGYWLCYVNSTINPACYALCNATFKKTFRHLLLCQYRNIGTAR

[36] = biological target: Mitogen-activated protein kinase kinase kinase 12 (Homo sapiens) (UniProt Q12852); conditions: Compound concentration 1000.0 nM
[37] = biological target: Phosphatidylinositol 4-phosphate 5-kinase type-1 gamma (Homo sapiens) (UniProt O60331); conditions: Compound concentration 1000.0 nM
[38] = biological target: Serine/threonine-protein kinase PAK 6 (Homo sapiens) (UniProt Q9NQU5); conditions: Compound concentration 1000.0 nM

Ribosomal protein S6 kinase alpha-1 (Homo sapiens), sequence (Q15418 whole entry): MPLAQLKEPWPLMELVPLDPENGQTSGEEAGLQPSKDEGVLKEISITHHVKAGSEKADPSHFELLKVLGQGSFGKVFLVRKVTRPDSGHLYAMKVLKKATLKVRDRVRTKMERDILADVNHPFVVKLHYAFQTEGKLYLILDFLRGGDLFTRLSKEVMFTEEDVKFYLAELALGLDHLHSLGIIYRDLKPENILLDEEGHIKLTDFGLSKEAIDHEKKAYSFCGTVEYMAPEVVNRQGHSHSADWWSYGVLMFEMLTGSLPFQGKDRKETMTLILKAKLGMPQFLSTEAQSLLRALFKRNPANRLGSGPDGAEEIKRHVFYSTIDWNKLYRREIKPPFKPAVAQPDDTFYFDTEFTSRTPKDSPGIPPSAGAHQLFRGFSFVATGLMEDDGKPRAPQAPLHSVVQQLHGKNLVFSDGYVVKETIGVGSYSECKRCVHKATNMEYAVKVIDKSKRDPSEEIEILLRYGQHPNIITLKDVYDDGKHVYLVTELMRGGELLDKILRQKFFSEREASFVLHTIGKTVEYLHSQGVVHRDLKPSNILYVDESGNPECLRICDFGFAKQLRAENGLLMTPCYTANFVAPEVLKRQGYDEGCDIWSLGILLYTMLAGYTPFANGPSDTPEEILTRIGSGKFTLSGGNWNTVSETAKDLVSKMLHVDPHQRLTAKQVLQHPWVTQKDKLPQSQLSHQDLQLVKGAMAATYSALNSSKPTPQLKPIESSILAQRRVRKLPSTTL
Tyrosine-protein kinase BTK (Homo sapiens), sequence (Q06187 whole entry): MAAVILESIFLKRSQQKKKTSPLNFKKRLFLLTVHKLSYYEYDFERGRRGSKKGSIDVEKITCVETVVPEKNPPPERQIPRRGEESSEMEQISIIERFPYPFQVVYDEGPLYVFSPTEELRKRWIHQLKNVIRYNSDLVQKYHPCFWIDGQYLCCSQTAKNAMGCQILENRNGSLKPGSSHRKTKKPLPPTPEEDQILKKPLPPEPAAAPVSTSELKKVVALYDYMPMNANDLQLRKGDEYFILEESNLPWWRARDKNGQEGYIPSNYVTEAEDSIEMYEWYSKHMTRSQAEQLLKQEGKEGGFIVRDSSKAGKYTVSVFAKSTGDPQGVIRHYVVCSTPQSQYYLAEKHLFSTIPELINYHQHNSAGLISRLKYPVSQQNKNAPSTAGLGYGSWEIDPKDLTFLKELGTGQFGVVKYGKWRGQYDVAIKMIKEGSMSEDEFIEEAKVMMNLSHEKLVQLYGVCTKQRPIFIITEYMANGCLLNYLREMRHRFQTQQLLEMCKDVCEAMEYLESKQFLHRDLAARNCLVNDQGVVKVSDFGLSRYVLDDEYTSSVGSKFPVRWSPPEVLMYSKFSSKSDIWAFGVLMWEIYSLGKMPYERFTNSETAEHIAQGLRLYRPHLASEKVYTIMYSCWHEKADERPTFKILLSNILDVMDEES
Tyrosine-protein kinase Srms (Homo sapiens), sequence (Q9H3Y6 whole entry): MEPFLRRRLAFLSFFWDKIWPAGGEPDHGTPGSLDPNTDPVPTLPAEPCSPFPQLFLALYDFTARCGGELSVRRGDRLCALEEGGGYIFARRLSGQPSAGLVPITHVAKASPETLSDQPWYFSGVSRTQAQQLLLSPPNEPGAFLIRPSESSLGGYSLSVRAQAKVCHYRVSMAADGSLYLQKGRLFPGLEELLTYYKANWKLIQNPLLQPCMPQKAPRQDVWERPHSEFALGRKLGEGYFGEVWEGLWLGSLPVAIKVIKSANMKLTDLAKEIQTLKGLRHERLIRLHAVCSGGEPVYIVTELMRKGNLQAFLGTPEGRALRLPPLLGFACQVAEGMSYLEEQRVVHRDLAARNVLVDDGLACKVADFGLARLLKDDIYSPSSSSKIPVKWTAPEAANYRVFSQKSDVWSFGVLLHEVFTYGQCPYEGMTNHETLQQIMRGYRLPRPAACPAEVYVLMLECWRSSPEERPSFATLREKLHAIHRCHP
Death-associated protein kinase 3 (Homo sapiens), sequence (O43293 whole entry, looked up): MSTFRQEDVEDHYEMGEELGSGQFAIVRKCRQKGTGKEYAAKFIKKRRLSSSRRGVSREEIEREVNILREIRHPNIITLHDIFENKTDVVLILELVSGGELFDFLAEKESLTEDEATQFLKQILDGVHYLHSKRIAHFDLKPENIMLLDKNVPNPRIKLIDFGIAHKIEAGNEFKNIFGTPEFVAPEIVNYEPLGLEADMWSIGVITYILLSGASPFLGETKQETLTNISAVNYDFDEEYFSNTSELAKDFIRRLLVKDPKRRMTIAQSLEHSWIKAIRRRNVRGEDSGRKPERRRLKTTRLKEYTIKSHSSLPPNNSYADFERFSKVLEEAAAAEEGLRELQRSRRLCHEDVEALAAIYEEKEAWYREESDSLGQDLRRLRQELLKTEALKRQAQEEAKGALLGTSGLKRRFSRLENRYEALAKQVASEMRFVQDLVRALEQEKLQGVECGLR
Phosphatidylinositol 4,5-bisphosphate 3-kinase catalytic subunit alpha isoform (Homo sapiens), P42336 [H1047Y], sequence (P42336 whole entry H1047Y, canonical isoform): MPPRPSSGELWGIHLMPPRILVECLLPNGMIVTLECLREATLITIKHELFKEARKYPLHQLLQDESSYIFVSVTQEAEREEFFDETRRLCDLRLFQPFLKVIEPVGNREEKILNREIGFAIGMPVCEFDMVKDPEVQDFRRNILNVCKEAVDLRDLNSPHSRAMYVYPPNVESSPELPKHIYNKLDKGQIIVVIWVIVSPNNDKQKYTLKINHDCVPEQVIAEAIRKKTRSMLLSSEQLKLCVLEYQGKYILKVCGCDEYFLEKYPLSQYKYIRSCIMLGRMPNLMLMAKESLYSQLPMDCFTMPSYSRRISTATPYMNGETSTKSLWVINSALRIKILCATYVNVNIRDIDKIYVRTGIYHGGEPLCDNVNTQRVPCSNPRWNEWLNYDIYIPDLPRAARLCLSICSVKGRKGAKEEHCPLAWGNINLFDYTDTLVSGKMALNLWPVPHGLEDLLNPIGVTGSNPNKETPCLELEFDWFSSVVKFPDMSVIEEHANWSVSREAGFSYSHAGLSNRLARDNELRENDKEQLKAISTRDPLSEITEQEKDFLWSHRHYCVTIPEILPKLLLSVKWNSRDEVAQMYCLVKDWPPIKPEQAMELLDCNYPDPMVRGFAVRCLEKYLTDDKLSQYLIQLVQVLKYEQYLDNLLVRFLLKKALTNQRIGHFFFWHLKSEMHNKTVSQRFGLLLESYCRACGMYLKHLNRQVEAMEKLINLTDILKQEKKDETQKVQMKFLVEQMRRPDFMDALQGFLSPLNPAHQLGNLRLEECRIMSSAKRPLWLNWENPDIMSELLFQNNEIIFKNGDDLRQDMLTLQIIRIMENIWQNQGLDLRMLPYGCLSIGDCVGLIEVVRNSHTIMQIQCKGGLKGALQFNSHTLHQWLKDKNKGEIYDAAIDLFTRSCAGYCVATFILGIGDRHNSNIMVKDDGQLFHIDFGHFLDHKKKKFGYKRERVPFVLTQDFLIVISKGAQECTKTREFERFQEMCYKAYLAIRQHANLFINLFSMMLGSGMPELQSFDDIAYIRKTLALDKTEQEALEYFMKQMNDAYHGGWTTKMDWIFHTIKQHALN
cAMP-dependent protein kinase catalytic subunit PRKX (Homo sapiens), sequence (P51817 whole entry): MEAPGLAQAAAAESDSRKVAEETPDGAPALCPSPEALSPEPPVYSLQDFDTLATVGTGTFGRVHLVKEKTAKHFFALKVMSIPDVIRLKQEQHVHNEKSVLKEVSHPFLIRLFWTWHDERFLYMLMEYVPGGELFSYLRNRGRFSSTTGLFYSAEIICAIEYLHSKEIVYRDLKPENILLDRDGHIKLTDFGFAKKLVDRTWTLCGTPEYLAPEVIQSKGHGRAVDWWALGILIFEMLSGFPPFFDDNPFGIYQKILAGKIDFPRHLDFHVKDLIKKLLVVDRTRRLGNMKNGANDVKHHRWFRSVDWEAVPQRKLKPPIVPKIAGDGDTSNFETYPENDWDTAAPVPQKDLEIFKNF
Tyrosine-protein kinase JAK2 (Homo sapiens), sequence (O60674 whole entry): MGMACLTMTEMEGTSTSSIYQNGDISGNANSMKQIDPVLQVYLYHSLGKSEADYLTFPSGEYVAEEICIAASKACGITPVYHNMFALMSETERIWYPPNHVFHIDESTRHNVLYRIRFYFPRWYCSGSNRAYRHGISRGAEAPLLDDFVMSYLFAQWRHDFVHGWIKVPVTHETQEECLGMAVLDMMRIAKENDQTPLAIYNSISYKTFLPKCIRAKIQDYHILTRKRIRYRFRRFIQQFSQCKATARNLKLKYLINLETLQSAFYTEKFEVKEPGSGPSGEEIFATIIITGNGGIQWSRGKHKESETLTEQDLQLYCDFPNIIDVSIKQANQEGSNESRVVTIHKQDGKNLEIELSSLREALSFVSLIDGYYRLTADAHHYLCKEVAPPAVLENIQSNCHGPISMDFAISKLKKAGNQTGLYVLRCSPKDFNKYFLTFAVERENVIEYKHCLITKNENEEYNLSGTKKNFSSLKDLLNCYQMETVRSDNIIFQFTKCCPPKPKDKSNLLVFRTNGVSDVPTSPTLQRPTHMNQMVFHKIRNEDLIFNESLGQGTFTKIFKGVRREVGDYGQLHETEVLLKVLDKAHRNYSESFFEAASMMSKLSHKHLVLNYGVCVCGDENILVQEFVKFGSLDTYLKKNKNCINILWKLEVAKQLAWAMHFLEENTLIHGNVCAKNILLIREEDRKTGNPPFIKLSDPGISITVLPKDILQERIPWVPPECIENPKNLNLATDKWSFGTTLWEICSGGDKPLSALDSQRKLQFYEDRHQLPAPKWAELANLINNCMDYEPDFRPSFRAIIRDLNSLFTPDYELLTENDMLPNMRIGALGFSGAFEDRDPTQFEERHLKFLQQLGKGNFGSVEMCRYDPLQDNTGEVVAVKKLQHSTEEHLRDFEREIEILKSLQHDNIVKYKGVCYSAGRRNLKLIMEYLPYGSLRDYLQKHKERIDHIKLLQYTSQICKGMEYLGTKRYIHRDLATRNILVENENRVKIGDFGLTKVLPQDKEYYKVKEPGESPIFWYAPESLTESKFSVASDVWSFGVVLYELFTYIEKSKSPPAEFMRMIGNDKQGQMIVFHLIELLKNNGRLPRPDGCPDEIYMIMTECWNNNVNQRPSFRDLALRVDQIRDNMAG

CNC(=O)Nc1ccc2c(c1)[C@@]1(CC2)OC(=O)N(CC(=O)N(Cc2ccc(F)cc2)[C@@H](C)C(F)(F)F)C1=O [A-486]
inactive: residual activity [1] 88% | residual activity [2] 100% | residual activity [3] 100% | residual activity [4] 85% | residual activity [5] 100% | residual activity [6] 98% | residual activity [7] 100% | residual activity [8] 100% | residual activity [9] 81% | residual activity [10] 99% | residual activity [11] 86% | residual activity [12] 100% | residual activity [13] 88% | residual activity [14] 95% | residual activity [15] 100% | residual activity [16] 96% | inhibition [17] 7% | residual activity [18] 78% | residual activity [19] 87% | residual activity [20] 98% | residual activity [21] 96% | inhibition [22] 6% | residual activity [23] 100% | residual activity [24] 81% | residual activity [25] 92% | residual activity [26] 87% | residual activity [27] 100% | inhibition [28] -5% | residual activity [29] 82% | residual activity [30] 84% | residual activity [31] 97% | residual activity [32] 90% | residual activity [33] 100% | residual activity [34] 98% | inhibition [35] 6% | residual activity [36] 100% | residual activity [37] 100% | residual activity [38] 100%

CNC(=O)Nc1ccc2c(c1)CC[C@@]21OC(=O)N(CC(=O)N(Cc2ccc(F)cc2)[C@@H](C)C(F)(F)F)C1=O [A-485]
inactive: residual activity [1] 83% | residual activity [2] 92% | residual activity [3] 83% | residual activity [4] 86% | residual activity [5] 91% | residual activity [6] 100% | residual activity [7] 100% | residual activity [8] 97% | residual activity [9] 83% | residual activity [10] 86% | residual activity [11] 80% | residual activity [12] 92% | residual activity [13] 75% | residual activity [14] 100% | residual activity [15] 93% | residual activity [16] 86% | inhibition [17] 22% | residual activity [18] 95% | residual activity [19] 71% | residual activity [20] 100% | residual activity [21] 100% | inhibition [22] -9% | residual activity [23] 95% | residual activity [24] 89% | residual activity [25] 96% | residual activity [26] 84% | residual activity [27] 86% | inhibition [28] 12% | residual activity [29] 69% | residual activity [30] 91% | residual activity [31] 87% | residual activity [32] 98% | residual activity [33] 88% | residual activity [34] 100% | inhibition [35] 14% | residual activity [36] 100% | residual activity [37] 100% | residual activity [38] 91%

— ChEMBL document CHEMBL4507259 (2021)
